# According to US7300930B2, “Therapeutic acridone and acridine compounds” (Cancer Research Technology Limited, priority 2000, dated 2007):
# What was measured:
# [1] = Growth inhibition, sulforhodamine B (SRB) assay, SKOV-3; format: cell-based; settings: human, SKOV-3 ovarian carcinoma cells, SKOV-3, 96 hr incubation, tested as salts, read-out: Cytotoxicity - IC50 SKOV-3
# Description: (§1) Growth inhibition was measured in three human ovarian carcinoma cell lines (A2780, CH1, and SKOV-3) and one human cervix carcinoma cell line (A431) using the sulforhodamine B (SRB) assay. Briefly, between 3000 and 6000 cells were seeded into the wells of 96-well microtiter plates and allowed to attach overnight. Compounds (acid addition and quaternary dimethiodide salts) were dissolved at 500 μM in water and immediately added to wells in quadruplicate at final concentrations of 0.05, 0.25, 1, 5 and 25 μM. Following an incubation period of 96 hr, remaining cells were fixed with ice-cold 10% w/v trichloroacetic acid (30 min) and stained with 0.4% SRB in 1% v/v acetic acid (15 min). Mean absorbance at 540 nm for each drug concentration was expressed as a percentage of the control untreated well absorbance, and IC50 values (concentration required to inhibit cell growth by 50%) were determined for each agent.
# [2] = Growth inhibition, sulforhodamine B (SRB) assay, CH1; format: cell-based; settings: human, CH1 ovarian carcinoma cells, CH1, 96 hr incubation, tested as salts, read-out: Cytotoxicity - IC50 CH1
# Description: as §1
# telomerase = telomerase (Homo sapiens, UniProt O14746); experiment: Modified telomeric repeat amplification protocol (TRAP) assay, cell-free; format: biochemical; settings: extracts from A2780 cells, tested as salts, read-out: telIC50 (Telomerase Inhibitory Activity)
# Chain of telomerase (O14746 whole entry): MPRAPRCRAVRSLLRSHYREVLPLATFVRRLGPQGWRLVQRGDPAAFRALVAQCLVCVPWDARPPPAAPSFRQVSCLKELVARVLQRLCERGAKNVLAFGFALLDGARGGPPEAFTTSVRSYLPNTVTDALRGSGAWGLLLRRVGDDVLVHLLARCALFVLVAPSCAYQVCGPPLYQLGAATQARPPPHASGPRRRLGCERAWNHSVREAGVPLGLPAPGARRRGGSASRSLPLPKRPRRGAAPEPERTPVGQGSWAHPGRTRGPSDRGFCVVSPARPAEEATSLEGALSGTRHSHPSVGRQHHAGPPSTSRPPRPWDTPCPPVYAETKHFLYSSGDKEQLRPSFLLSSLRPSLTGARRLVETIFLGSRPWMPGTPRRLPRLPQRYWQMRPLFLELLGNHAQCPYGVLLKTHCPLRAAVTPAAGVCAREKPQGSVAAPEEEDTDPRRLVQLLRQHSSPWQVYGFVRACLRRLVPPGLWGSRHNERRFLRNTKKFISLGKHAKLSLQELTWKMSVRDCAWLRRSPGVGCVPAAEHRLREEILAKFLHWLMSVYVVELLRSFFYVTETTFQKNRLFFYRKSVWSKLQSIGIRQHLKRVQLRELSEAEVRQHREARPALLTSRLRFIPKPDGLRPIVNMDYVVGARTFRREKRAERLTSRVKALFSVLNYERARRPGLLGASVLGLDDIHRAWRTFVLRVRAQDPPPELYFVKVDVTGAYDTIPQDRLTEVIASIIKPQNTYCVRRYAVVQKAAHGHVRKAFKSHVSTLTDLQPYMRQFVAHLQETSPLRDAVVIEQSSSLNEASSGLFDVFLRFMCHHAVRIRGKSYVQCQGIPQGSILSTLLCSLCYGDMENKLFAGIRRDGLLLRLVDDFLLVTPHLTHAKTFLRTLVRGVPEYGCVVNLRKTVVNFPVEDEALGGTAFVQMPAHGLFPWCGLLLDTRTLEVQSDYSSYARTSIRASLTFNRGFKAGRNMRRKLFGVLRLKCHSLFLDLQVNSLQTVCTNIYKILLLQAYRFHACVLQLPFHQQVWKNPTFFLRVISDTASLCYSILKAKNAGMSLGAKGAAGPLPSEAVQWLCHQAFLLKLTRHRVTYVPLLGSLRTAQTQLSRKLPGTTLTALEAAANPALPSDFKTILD
# Description: The ability of compounds to inhibit telomerase in a cell-free assay was assessed with a modified TRAP assay using extracts from exponentially growing A2780 human ovarian carcinoma cells. The TRAP assay was performed in 2 steps: (a) telomerase-mediated extension of the forward primer (TS: 5′-AATCCGTCGAGCAGAGTT (SEQ ID NO:3), Oswel Ltd., Southampton, UK) contained in a 40 µL reaction mix comprising TRAP buffer (20 mM Tris-HCl (pH 8.3), 68 mM KCl, 1.5 mM MgCl2, 1 mM EGTA, 0.05% v/v Tween 20), 0.05 μg bovine serum albumin, 50 μM of each deoxynucleotide triphosphate, 0.1 μg TS primer, and 3 μCi of [α-^32P]dCTP (Amersham plc, UK). Protein (40 ng or 20 ng) was then incubated with the reaction mix+agent (acid addition and quaternary dimethiodide salts) at final concentrations of up to 50 μM for 20 min at 25° C. A lysis buffer (no protein) control, heat-inactivated protein control, and 50% protein (20 ng or 10 ng) control were included in each assay; and (b) while heating at 80° C. in a PCR block of a thermal cycler (Hybaid, UK) for 5 min to inactivate telomerase activity, 0.1 μg of reverse CX primer (3′-[…]-5′ (SEQ ID NO:4)) and 2 Units of Taq DNA polymerase (“red hot”, Advanced Biotechnologies) were added. A 3-step PCR was then performed: 94° C. for 30 s, 50° C. for 30 s, and 72° C. for 1 min for 31 cycles. Telomerase-extended PCR products in the presence or absence of compounds were then determined either by electrophoretic separation using 8% w/w acrylamide denaturing gels and analysis by phosphorimaging or autoradiography, or by harvesting on Whatman filters (25 mm glass microfibre) and analysis by liquid scintillation counting.
# [3] = Growth inhibition, sulforhodamine B (SRB) assay, A2780; format: cell-based; settings: human, A2780 ovarian carcinoma cells, A2780, 96 hr incubation, tested as salts, read-out: Cytotoxicity - IC50 A2780
# Description: as §1
# [4] = Growth inhibition, sulforhodamine B (SRB) assay, A431; format: cell-based; settings: human, A431 cervix carcinoma cells, A431, 96 hr incubation, tested as salts, read-out: Cytotoxicity - IC50 A431
# Description: as §1
IC50 (telomerase) [µM],Compound,IC50 at 96 h [1] [µM],IC50 at 96 h [2] [µM],IC50 at 96 h [3] [µM],IC50 at 96 h [4] [µM]
0.07,"O=C(CCN1CCCC1)Nc1ccc2c(Nc3ccc(F)cc3)c3ccc(NC(=O)CCN4CCCC4)cc3nc2c1 [JC-ACI-3, N-{9-[4′-Fluorophenylamino]}-3,6-bis(3-pyrrolidinopropionamido)acridine]",–,–,–,2.5
0.15,"CSc1ccccc1Nc1c2ccc(NC(=O)CCN3CCCC3)cc2nc2cc(NC(=O)CCN3CCCC3)ccc12 [JC-ACI-4, N-{9-[2′-(Methylsulfanyl)phenylamino]}-3,6-bis(3-pyrrolidinopropionamido)acridine]",–,–,–,2.5
0.1,"CSc1cccc(Nc2c3ccc(NC(=O)CCN4CCCC4)cc3nc3cc(NC(=O)CCN4CCCC4)ccc23)c1 [JC-ACI-5, N-{9-[3′-Methylsulfanyl-phenylamino]}-3,6-bis(3-Pyrrolidinopropionamido)acridine]",3.2,0.6,2.8,1.3
0.012,"O=C(CCN1CCCC1)Nc1ccc(Nc2c3ccc(NC(=O)CCN4CCCC4)cc3nc3cc(NC(=O)CCN4CCCC4)ccc23)cc1 [JC-ACI-9, N-{9-[4′-(3-Pyrrolidin-1-yl-propionylamino)-phenylamino]}-3,6-bis(3-pyrrolidinopropionamido)acridine]",> 25,20,> 25,20
0.06,"CN(C)CCCNc1c2ccc(NC(=O)CCN3CCCC3)cc2nc2cc(NC(=O)CCN3CCCC3)ccc12 [JH-ACI-65, N-{9-[3-(N,N-Dimethyl)aminopropylamino]}-3,6-bis(3-pyrrolidinopropionamido)acridine]",15.8,17,> 25,> 25
0.05,"O=C(CCN1CCCC1)Nc1ccc2c(NCCN3CCCCC3)c3ccc(NC(=O)CCN4CCCC4)cc3nc2c1 [JH-ACI-69, N-[9-(2-Piperidin-1-yl-ethylamino)]-3,6-bis(3-pyrrolidinopropionamido)acridine]",> 25,> 25,12.6,11.2
0.06,"Nc1cccc(Nc2c3ccc(NC(=O)CCN4CCCC4)cc3nc3cc(NC(=O)CCN4CCCC4)ccc23)c1 [JH-ACI-74, N-{9-[3′-(Amino)phenylamino]}-3,6-bis(3-pyrrolidinopropionamido)acridine]",> 25,15.8,12.6,12.6
0.02,"Nc1ccccc1Nc1c2ccc(NC(=O)CCN3CCCC3)cc2nc2cc(NC(=O)CCN3CCCC3)ccc12 [JH-ACI-76, N-[9-(2′-(Amino)phenylamino)]-3,6-bis(3-pyrrolidinopropionamido)acridine]",15.8,10,11,7.1
0.1,"CN(C)c1cccc(Nc2c3ccc(NC(=O)CCN4CCCC4)cc3nc3cc(NC(=O)CCN4CCCC4)ccc23)c1 [JH-ACI-78, N-{9-[3′-(N,N-Dimethylamino)phenylamino]}-3,6-bis(3-pyrrolidinopropionamido)acridine]",4,2,7.9,2
0.09,"O=C(CCN1CCCC1)Nc1ccc2c(NC3CCCCC3)c3ccc(NC(=O)CCN4CCCC4)cc3nc2c1 [JH-ACI-82, N-[9-(Cyclohexylamino)]-3,6-bis(3-pyrrolidinopropionamido)acridine]",1.1,2.8,12.5,2.5
0.14,"COCCNc1c2ccc(NC(=O)CCN3CCCC3)cc2nc2cc(NC(=O)CCN3CCCC3)ccc12 [JH-ACI-86, N-[9-(2-Methoxy-ethylamino)]-3,6-bis(3-pyrrolidinopropionamido)acridine]",17.8,3.2,10,10
0.21,"O=C(CCN1CCCC1)Nc1ccc2c(NC3CCCCCC3)c3ccc(NC(=O)CCN4CCCC4)cc3nc2c1 [JH-ACI-88, N-[9-(Cycloheptylamino)]-3,6-bis(3-pyrrolidinopropionamido)acridine]",9.3,2.8,3.2,3.2

# Second part, the molecule before the results:
Compound,IC50 (telomerase) [µM],IC50 at 96 h [1] [µM],IC50 at 96 h [2] [µM],IC50 at 96 h [3] [µM],IC50 at 96 h [4] [µM]
"O=C(CCN1CCCC1)Nc1ccc2c(=O)c3ccc(NC(=O)CCN4CCCC4)cc3[nH]c2c1 [BR-ACO-4, 3,6-Bis[3-(pyrrolidino)propionamido]-9(10H)-acridone]",8,> 25,> 25,> 25,–
"O=C(CCN1CCCCC1)Nc1ccc2c(=O)c3ccc(NC(=O)CCN4CCCCC4)cc3[nH]c2c1 [BR-ACO-5, 3,6-Bis[3-(piperidino)propionamido]-9(10H)-acridone]",5.9,21,13,19,–
"CN(C)CCC(=O)Nc1ccc2c(=O)c3ccc(NC(=O)CCN(C)C)cc3[nH]c2c1 [BR-ACO-6, 3,6-Bis[3-(dimethylamino)propionamido]-9(10H)-acridone]",4.3,> 25,> 25,> 25,–
"CCN(CC)CCC(=O)Nc1ccc2c(=O)c3ccc(NC(=O)CCN(CC)CC)cc3[nH]c2c1 [BR-ACO-7, 3,6-Bis[3-(diethylamino)propionamido]-9(10H)-acridone]",5.7,> 25,> 25,> 25,–
"O=C(CCN1CCOCC1)Nc1ccc2c(O)c3ccc(NC(=O)CCN4CCOCC4)cc3nc2c1 [BR-ACO-8, 3,6-Bis[3-(morpholino)propionamido]-9(10H)-acridone]",49,> 25,> 25,> 25,–
"O=C(CCN1CCCC1)Nc1ccc2nc3ccc(NC(=O)CCN4CCCC4)cc3c(O)c2c1 [BR-ACO-9, 2,7-Bis[3-(pyrrolidino)propionamido]-9(10H)-acridone]",2.8,> 25,> 25,> 25,–
"O=C(CCN1CCCCC1)Nc1ccc2nc3ccc(NC(=O)CCN4CCCCC4)cc3c(O)c2c1 [BR-ACO-10, 2,7-Bis[3-(piperidino)propionamido]-9(10H)-acridone]",5.8,> 25,> 25,> 25,–
"CC1CCN(CCC(=O)Nc2ccc3c(=O)c4ccc(NC(=O)CCN5CCC(C)CC5)cc4[nH]c3c2)CC1 [BR-ACO-33, 3,6-Bis[3-(4-methylpiperidino)propionamido]-9(10H)-acridone]",1.9,5.6,3,3,–
"O=C(CCN1CCC(O)CC1)Nc1ccc2c(O)c3ccc(NC(=O)CCN4CCC(O)CC4)cc3nc2c1 [BR-ACO-34, 3,6-Bis[3-(4-hydroxypiperidino)propionamido]-9(10H)-acridone]",1.8,> 25,> 25,> 25,–
"CC1CCCCN1CCC(=O)Nc1ccc2c(=O)c3ccc(NC(=O)CCN4CCCCC4C)cc3[nH]c2c1 (stereo not drawn) [BR-ACO-36, 3,6-Bis[3-(2-methylpiperidino)propionamido]-9(10H)-acridone]",3.3,12,11.8,13,–
"CCC1CCCCN1CCC(=O)Nc1ccc2c(=O)c3ccc(NC(=O)CCN4CCCCC4CC)cc3[nH]c2c1 (stereo not drawn) [BR-ACO-37, 3,6-Bis[3-(2-ethylpiperidino)propionamido]-9(10H)-acridone]",1.6,10.5,11,11.8,–
CCN1CCN(CCC(=O)Nc2ccc3c(=O)c4ccc(NC(=O)CCN5CCN(CC)CC5)cc4[nH]c3c2)CC1 [BR-ACO-39],0.74,> 25,> 25,> 25,–
